# Source: patent publication US20240150423A1, “GLP-1 ANALOGUE-MODIFIED DIMERS WITH DIFFERENT CONFIGURATIONS, PREPARATION METHOD THEREOF, AND APPLICATION THEREOF IN TREATMENT OF TYPE II DIABETES” (Nanjing Finepeptide Biopharmaceutical Co.,Ltd, priority 2019, published 2024)
# “And” between values parts separate entries of the source, which are not always exact repeats. Identical values can stand only once. Like-named read-outs stand apart in the source and are kept apart here.
# Experiments:
# GLP-1R = GLP-1R Western blot analysis in T2D model; format: in vivo, C57B16/J mice; conditions: compared with the model control group
# Normal Kunming (KM) mice [1] = assay: multiple OGTT (mOGTT): hypoglycemic duration after a single administration; format: in vivo; conditions: single injection at the same dose (1.126 nmol), subcutaneous
# Method in brief: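 Normal Kunming mice given a single dose, then oral glucose challenges; tail-blood glucose read by meter at 0, 10, 20, 40, 60 and 120 min. Duration scored as hypoglycemic period until group mean glucose exceeded the NaCl control twice.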
# Normal Kunming (KM) mice [2] = assay: single oral glucose tolerance test (sOGTT); format: in vivo; conditions: for glucose peak in single OGTT: after a single administration and oral glucose, tail blood at 0-120 min
# Text: • 1. Methods: Normal Kunming (KM) mice (purchased from Guangdong Animal Center) were used for oral glucose tolerance test (OGTT) to obtain the hypoglycemic activity and durability of drug. […] The blood glucose meter and blood glucose test paper were from Bayer […]. The average blood glucose of each group was used as an evaluation standard: When the average blood glucose of experimental group was higher than that of the NaCl control group for two times, the measurement stopped and the hypoglycemic period compared to the blank control group was the effective duration. • 2. Results • 2.1 single OGTTs: after a single administration, the mice were orally administered glucose once and measured the blood glucose from the tail blood at 0, 10, 20, 40, 60 and 120 min. […] The duration of each monomer group was about 1⁄2-1⁄4 of the duration of its corresponding dimer group. […] Therefore, the 2G3 peptide was selected for treating type II diabetes (T2D) in vivo and subsequent experiments.
# [3] = T2D model treatment: body weight and organ weights; format: in vivo, C57B16/J mice; conditions: 2G1 study, 35 days
# Protocol: C57B16/J mice were placed in an SPF-level environment with a standard diet. All experimental operations were performed in accordance with the guidelines of the ethics and uses of experimental animals. […] The NaCl-PB group served as blank control and the model control group served as the T2D model control. They were injected with NaCl-PB solution. The T2D model group was fed with 60 kcal % high-fat diet (D12492, Changzhou SYSE Bio-tech. Co., Ltd., China) until the end of the experiment. Meanwhile the blank control group maintained standard diet. […] These groups were subjected to a 35-day treatment study on the basis of the high-fat diet. • 1. […] The monomeric peptides were dissolved into a saline solution (pH 6.5) for injection. • 2. […] The models were measured blood glucose at the tail and weight weighted every morning at 9 am. […] In the T2D treatment study, all T2D model mice were injected subcutaneously at the back hip in 100 μl per mouse within 30 min. The blood glucose of the experimental mice was measured every five days and the whole measurement was completed within 40 min. […] No. 8-9695-03-201-1, Novo Nordisk company, Switzerland) until the end of the 35-day experiment. • 3.
# [4] = trial for 26 weeks; cited from earlier work
# [5] = clinic trial for 24 weeks, once a day; cited from earlier work
# thyroid C-cell = conditions: rodents, dose-dependent and time-dependent; cited from earlier work
# [6] = in vivo; cited from earlier work
# [7] = speculated; cited from earlier work
# [8] = cited from earlier work
# [9] = high dose 3.378 nmol/100 μL once a day
# [10] = low dose 0.375 nmol/100 μL once a day
# [11] = medium dose and Liraglutide group 1.126 nmol/100 μL once a day
compound,measurement,setting,value
2G2 series 7: disulfide-linked homodimer of monomer SEQ ID NO: 7 (HAEGTFTSDVCSYLEGQAAXEFIAWLVRGRG; disulfide-linked homodimer; Sequence is synthesized; (20)..(20) Xaa is Xaa is 26Lys[N-e-(N-a-Palmitoyl-g-glutamyl)]; (31)..(31) C-terminal),GLP-1R expression (Western blot),GLP-1R,significantly increased GLP-1R
same,Hypoglycemic duration (days),Normal Kunming (KM) mice [1],5 (2G2 peptide) days
same,hypoglycemic effect in single OGTT,"Normal Kunming (KM) mice [2]; with more time, no significant difference",stronger than that of monomeric G2 or G3
CCCCCCCCCCCCCCCC(=O)N[C@@H](CCC(=O)NCCCC[C@H](NC(=O)[C@H](C)NC(=O)[C@H](C)NC(=O)[C@H](CCC(N)=O)NC(=O)CNC(=O)[C@H](CCC(=O)O)NC(=O)[C@H](CC(C)C)NC(=O)[C@H](Cc1ccc(O)cc1)NC(=O)[C@H](CO)NC(=O)[C@H](CO)NC(=O)[C@@H](NC(=O)[C@H](CC(=O)O)NC(=O)[C@H](CO)NC(=O)[C@@H](NC(=O)[C@H](Cc1ccccc1)NC(=O)[C@@H](NC(=O)CNC(=O)[C@H](CCC(=O)O)NC(=O)[C@H](C)NC(=O)[C@@H](N)Cc1c[nH]cn1)[C@@H](C)O)[C@@H](C)O)C(C)C)C(=O)N[C@@H](CCC(=O)O)C(=O)N[C@@H](Cc1ccccc1)C(=O)N[C@H](C(=O)N[C@@H](C)C(=O)N[C@@H](Cc1c[nH]c2ccccc12)C(=O)N[C@@H](CC(C)C)C(=O)N[C@H](C(=O)N[C@@H](CCCNC(=N)N)C(=O)NCC(=O)N[C@@H](CCCNC(=N)N)C(=O)NCC(=O)N[C@@H](CSSC[C@H](NC(=O)CNC(=O)[C@H](CCCNC(=N)N)NC(=O)CNC(=O)[C@H](CCCNC(=N)N)NC(=O)[C@@H](NC(=O)[C@H](CC(C)C)NC(=O)[C@H](Cc1c[nH]c2ccccc12)NC(=O)[C@H](C)NC(=O)[C@@H](NC(=O)[C@H](Cc1ccccc1)NC(=O)[C@H](CCC(=O)O)NC(=O)[C@H](CCCCNC(=O)CC[C@H](NC(=O)CCCCCCCCCCCCCCC)C(=O)O)NC(=O)[C@H](C)NC(=O)[C@H](C)NC(=O)[C@H](CCC(N)=O)NC(=O)CNC(=O)[C@H](CCC(=O)O)NC(=O)[C@H](CC(C)C)NC(=O)[C@H](Cc1ccc(O)cc1)NC(=O)[C@H](CO)NC(=O)[C@H](CO)NC(=O)[C@@H](NC(=O)[C@H](CC(=O)O)NC(=O)[C@H](CO)NC(=O)[C@@H](NC(=O)[C@H](Cc1ccccc1)NC(=O)[C@@H](NC(=O)CNC(=O)[C@H](CCC(=O)O)NC(=O)[C@H](C)NC(=O)[C@@H](N)Cc1c[nH]cn1)[C@@H](C)O)[C@@H](C)O)C(C)C)[C@@H](C)CC)C(C)C)C(=O)O)C(=O)O)C(C)C)[C@@H](C)CC)C(=O)O [2G1],"Weight of organs, Heart",[3]; [9],0.121 ± 0.011a** g
same,"Weight of organs, Left kidney",[3]; [9],0.166 ± 0.040 g
same,"Weight of organs, Left testis",[3]; [9],0.086 ± 0.017 e* g
same,"Weight of organs, Liver",[3]; [9],1.293 ± 0.273 c* g
same,"Weight of organs, Lung",[3]; [9],0.144 ± 0.019 g
same,"Weight of organs, Pancreas",[3]; [9],0.145 ± 0.032 c* g
same,"Weight of organs, Right kidney",[3]; [9],0.175 ± 0.063 g
same,"Weight of organs, Right testis",[3]; [9],0.096 ± 0.011 g
same,"Weight of organs, Spleen",[3]; [9],0.095 ± 0.028 c* g
same,"Weight of organs, adipose tissue",[3]; [9],1.311 ± 0.629 c* g
same,"Weight of organs, Heart",[3]; [10],0.128 ± 0.023 g
same,"Weight of organs, Left kidney",[3]; [10],0.156 ± 0.021 g
same,"Weight of organs, Left testis",[3]; [10],0.094 ± 0.037 g
same,"Weight of organs, Liver",[3]; [10],1.290 ± 0.163 a*c** g
same,"Weight of organs, Lung",[3]; [10],0.146 ± 0.010 g
same,"Weight of organs, Pancreas",[3]; [10],0.129 ± 0.2a**c*** g
same,"Weight of organs, Right kidney",[3]; [10],0.147 ± 0.018 g
same,"Weight of organs, Right testis",[3]; [10],0.100 ± 0.021 b* g
same,"Weight of organs, Spleen",[3]; [10],0.107 ± 0.037 c* g
same,"Weight of organs, adipose tissue",[3]; [10],1.202 ± 0.406 c** g
same,"Weight of organs, Heart",[3]; [11],0.114 ± 0.010 a** g
same,"Weight of organs, Left kidney",[3]; [11],0.157 ± 0.030 g
same,"Weight of organs, Left testis",[3]; [11],0.100 ± 0.006 b** g
same,"Weight of organs, Liver",[3]; [11],1.211 ± 0.114 c** g
same,"Weight of organs, Lung",[3]; [11],0.139 ± 0.020 g
same,"Weight of organs, Pancreas",[3]; [11],0.155 ± 0.033 c*d* g
same,"Weight of organs, Right kidney",[3]; [11],0.139 ± 0.029 g
same,"Weight of organs, Right testis",[3]; [11],0.095 ± 0.011 g
same,"Weight of organs, Spleen",[3]; [11],0.101 ± 0.026 c* g
same,"Weight of organs, adipose tissue",[3]; [11],1.263 ± 0.276 c*** g
Albiglutide,body weight reduction,[4],0.6 kg
Dulaglutide,body weight reduction,[4],2.9 kg
His-Ala-Glu-Gly-Thr-Phe-Thr-Ser-Asp-Val-Cys-Ser-Tyr-Leu-Glu-Gly-Gln-Ala-Ala-Lys[N-ϵ-(N-α-Palmitoyl-L-γ-glutamyl)]-Glu-Phe-Ile-Ala-Trp-Leu-Val-Arg-Gly-Arg-Gly-OH (HAEGTFTSDVCSYLEGQAAXEFIAWLVRGRG; palmitoyl-γ-glutamyl on Lys; C-terminal acid; Sequence is synthesized; (20)..(20) Xaa is Xaa is 26Lys[N-e-(N-a-Palmitoyl-g-glutamyl)]; (31)..(31) C-terminal) [G2 series 7],glucose peak in single OGTT,Normal Kunming (KM) mice [2],no blood glucose peak appeared
His-Ala-Glu-Gly-Thr-Phe-Thr-Ser-Asp-Val-Ser-Cys-Tyr-Leu-Glu-Gly-Gln-Ala-Ala-Lys[N-ϵ-(N-α-Palmitoyl-L-γ-glutamyl)]-Glu-Phe-Ile-Ala-Trp-Leu-Val-Arg-Gly-Arg-Gly-OH (HAEGTFTSDVSCYLEGQAAXEFIAWLVRGRG; palmitoyl-γ-glutamyl on Lys; C-terminal acid; Sequence is synthesized; (20)..(20) Xaa is 26Lys[N-e-(N-a-palmitoyl-L-g-glutamyl)]; (31)..(31) C-terminal) [G3 series 20],Hypoglycemic (day),Normal Kunming (KM) mice [1]; monomeric peptides,4 (G3 peptide) day
same,glucose peak in single OGTT,Normal Kunming (KM) mice [2],no blood glucose peak appeared
Lixisenatide,incidence of side reaction,[5],2.5%
same,symptomatic hypoglycemia rate,[5],3.4%
Semaglutide,thyroid C-cell tumor,thyroid C-cell,can cause thyroid C-cell tumor
same,hypoglycemic activity reduction compared with Liraglutide,[6],3 times
same,half-life,[7],165 to 184 h
same,injection-site discomfort and erythema,[8]; % of patients,0.2%
same,gastrointestinal adverse reactions,[8]; Semaglutide 0.5 mg group,32.7%
same,gastrointestinal adverse reactions,[8]; Semaglutide 1 mg group,36.4%
same,mean increase in amylase,"[8]; human, in vivo",13%
same,mean increase in lipase,"[8]; human, in vivo",22%
same,severe hypoglycemia,"[8]; in combination with sulfonylurea, % of patients",0.8-1.2%
same,Cholelithiasis,"[8]; two values printed 'respectively', groups not named",1.5% and 0.4%
